The values that follow come from patent US7056947B2, “Aza-peptide epoxides” (Georgia Tech Research Corp., priority 2002, dated 2006).

Common to all, as to assay type: biochemical
In one experiment the target is T1, papain (Carica papaya, UniProt P00784).
T1 sequence (P00784 134-345): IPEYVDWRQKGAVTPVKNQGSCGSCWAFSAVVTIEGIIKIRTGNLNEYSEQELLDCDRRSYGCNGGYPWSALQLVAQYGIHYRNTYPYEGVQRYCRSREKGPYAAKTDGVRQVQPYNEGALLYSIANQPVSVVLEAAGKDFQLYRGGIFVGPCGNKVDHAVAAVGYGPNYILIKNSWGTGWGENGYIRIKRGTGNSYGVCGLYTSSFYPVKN
In words: Inhibition of papain, incubation method. As to conditions: second-order rate constant, NI = no inhibition. The method, then: The release of 7-amino-4-methylcoumarin was monitored (λex=360 nm, λem=465 nm) using a Tecan Spectra Fluor microplate reader. Pseudo first-order inactivation rate constants were obtained from plots of In vt/vo versus time.
The incubation method was also used for papain. The inhibition incubation buffer for papain was 50 mM Hepes buffer at pH 7.5, containing 2.5 mM DTT and 2.5 mM EDTA. The assay used the substrate Z-Phe-Arg-pNA (53.7 μM) in the same buffer. The approximate concentration of papain added to the incubation buffer was 0.29 mg/mL. The release of p-nitroanilide was monitored at 405 nm with a Molecular Devices Thermomax microplate reader.

The next experiment has as its target T2, caspase-1 (Homo sapiens, UniProt P29466, D381E).
T2 construct: His tag (N); made in house; host or cells: E. coli
T2 sequence (P29466 120-297 limits assumed): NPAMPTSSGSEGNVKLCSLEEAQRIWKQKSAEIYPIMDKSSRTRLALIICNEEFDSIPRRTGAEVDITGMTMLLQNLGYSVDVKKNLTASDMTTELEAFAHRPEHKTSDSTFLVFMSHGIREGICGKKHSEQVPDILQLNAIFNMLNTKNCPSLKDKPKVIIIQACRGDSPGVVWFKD
T2 sequence (P29466 317-404 D381E limits assumed): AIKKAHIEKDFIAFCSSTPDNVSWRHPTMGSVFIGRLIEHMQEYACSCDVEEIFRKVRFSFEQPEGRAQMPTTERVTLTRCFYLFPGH
Briefly: Caspase-1 progress curve assay. Particulars: D381E variant, substrate Ac-YVAD-AMC, 30° C. From the text:
Caspase-1. The preparation of the autolytically stable caspase-1 variant used in these studies has been described previously. Briefly, the variant contains a mutation (D381E) which renders it resistant to autolytic inactivation, but has no detectable affect on enzyme activity as compared to the naturally occurring enzyme. The enzyme variant was expressed in E. coli, purified first by immobilized metal chromatography via the N-terminal N-His tag, treated with excess oxidized glutathione to stabilize the reactive thiolate, and then re-purified by size-exclusion chromatography.
Inhibition data was measured using the progress curve assay method. Serial dilutions of each compound were prepared using an initial 8-fold dilution of a DMSO stock into HGE (100 mM HEPES,20% glycerol v/v, 0.5 mM EDTA), followed by seven serial two-fold dilutions into HGE and 12.5% DMSO, thus maintaining constant DMSO through the dilution series. Ten μL of diluted stocks or of vehicle (HGE and 12.5% DMSO) were placed in triplicate onto a 96-well microtiter plate, allowing several compounds to be tested on each plate. The plate was covered to minimize evaporation, and the plate was pre-warmed to 30° C. for 20 minutes. Enzyme was diluted into 10.0 mL of assay buffer (HGE, 5 mM DTT, plus 15 μM Ac-YVAD-AMC, 2 nM approximate final enzyme concentration), and this activated reaction mixture was added to the plate at 90 μL/well. Progress of substrate hydrolysis was monitored for 900 s in a LabSystems (Needham, Mass.) Fluoroskan Ascent fluorescent plate-reader using 385 and 460 nm excitation and emission filters, respectively, and a photomultiplier gain setting of 10. Triplicate curves were averaged and fit by nonlinear regression to the equation for irreversible inactivation shown below.
[formula] where F0 was routinely fixed to zero, since fluorescence values were always adjusted to an origin of 0. The second order rate constant kon (M^−1s^−1) was obtained from the slopes by linear regression, and errors represent the standard deviation of the regression slope.

The target of a further experiment is T3, caspase-3 (Homo sapiens, UniProt P42574).
T3 construct: made in house; host or cells: E. coli
T3 sequence (P42574 29-175 limits assumed): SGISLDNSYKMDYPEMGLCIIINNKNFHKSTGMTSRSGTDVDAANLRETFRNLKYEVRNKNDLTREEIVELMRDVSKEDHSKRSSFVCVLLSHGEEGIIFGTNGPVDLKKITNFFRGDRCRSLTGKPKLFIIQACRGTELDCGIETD
T3 sequence (P42574 176-277 limits assumed): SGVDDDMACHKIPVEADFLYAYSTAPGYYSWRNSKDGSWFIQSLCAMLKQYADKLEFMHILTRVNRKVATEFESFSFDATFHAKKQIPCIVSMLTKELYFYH
In words: Caspase-3 progress curve assay. As to conditions: substrate Z-DEVD-AFC; NI = no inhibition. The method, then:
Caspase-3, -6, and -8. Caspase-3, -6 and -8 were expressed in E. coli and purified according to methods previously described by Stennicke and Salvesen. Assays using the fluorogenic substrate Z-DEVD-AFC (λex=400 nm, λem=505 nm) were carried out on a Molecular Devices fMax fluorescence microplate reader. Inhibition rates and equilibria were determined by the progress curve method. The standard 100 μL reaction was started by adding enzyme to a mixture of substrate (final concentration of Z-DEVD-AFC 100 μM) and various amounts of inhibitor in buffer (50 mM Hepes, 100 mM NaCl, 0.1% (w/v) CHAPS, sucrose 10% (w/v), and 10 mM DTT, at pH 7.4). The caspases were pre-activated for 10 min at 37° C. in the presence of 10 mM DTT.

With `CCC(NC(=O)OC(C)(C)C)C(=O)NN(CCc1ccccc1)C(=O)[C@@H]1O[C@H]1CCc1ccccc1` (relative stereo) [Boc-Abu-AHph-trans-EP-CH2CH2Ph, trans-3-(N^2-(N-tert-Butoxycarbonyl-α-aminobutanoyl)-N^1-phenylethylhydrazinocarbonyl)-2-(2-phenylethyl)oxirane], on papain, the “kobs/[I] papain” value is 0.2 M⁻¹ s⁻¹. `CCOC(=O)[C@@H]1O[C@H]1C(=O)N(CC(C)C)NC(=O)[C@H](CC(C)C)NC(=O)[C@H](CC(C)C)NC(=O)OCc1ccccc1` [Cbz-Leu-Leu-ALeu-(2R, 3R)-EP-COOEt, (2R,3R)-3-(N^2-(N-Benzyloxycarbonylleucylleucyl)-N^1-isobutylhydrazinocarbonyl)oxirane-2-carboxylic Acid Ethyl Ester]: on papain (pH 7.5, read-out: kobs/[I] papain), the kinact/KI was 20.6 M⁻¹ s⁻¹.

Turning to `CC(C)[C@H](NC(=O)[C@H](CCC(=O)O)NC(=O)OCc1ccccc1)C(=O)NN(CC(=O)O)C(=O)[C@H]1O[C@@H]1C(=O)NCCc1ccccc1` [24h, (2S,3S)-2-(2-Phenethylcarbamoyl)-3-(N^2-(N-benzyloxycarbonylglutamylvalyl)-N^1-carboxymethylhydrazinocarbonyl)oxirane], on caspase-1, the “k2 caspase-1” value is 41070 ± 440 M⁻¹ s⁻¹. The “k2 caspase-3” value on caspase-3 came to 27330 ± 5430 M⁻¹ s⁻¹. As to `CC(C)[C@H](NC(=O)CCc1ccccc1)C(=O)N[C@@H](C)C(=O)NN(CC(=O)O)C(=O)[C@H]1O[C@@H]1C(=O)NCCc1ccccc1` [23h (S,S), (2S,3S)-2-(2-Phenethylcarbamoyl)-3-(N^2-(3-phenylpropanoylvalylalanyl)-N^1-carboxymethylhydrazinocarbonyl)oxirane], the “k2 caspase-1” value at caspase-1 was found to be 17150 ± 2254 M⁻¹ s⁻¹. In addition, at caspase-3, the “k2 caspase-3” value was determined as 1110 ± 100 M⁻¹ s⁻¹.

As for `CCOC(=O)[C@H]1O[C@@H]1C(=O)N(CC(=O)O)NC(=O)[C@@H](NC(=O)[C@H](CCC(=O)O)NC(=O)OCc1ccccc1)C(C)C` [24c, (2S,3S)-3-(N^2-(N-Benzyloxycarbonylglutamylvalyl)-N^1-carboxymethylhydrazinocarbonyl)oxirane-2-carboxylic Acid Ethyl Ester], the “k2 caspase-1” value on caspase-1 turned out to be 58500 M⁻¹ s⁻¹. Further, on caspase-3, the “k2 caspase-3” value was determined as 50500 ± 2075 M⁻¹ s⁻¹. Turning to `CC(C)[C@H](NC(=O)CCc1ccccc1)C(=O)N[C@@H](C)C(=O)NN(CC(=O)O)C(=O)[C@H]1O[C@@H]1C(=O)OCCc1ccccc1` [23e, (2S,3S)-3-(N^2-(3-Phenylpropanoylvalylalanyl)-N^1-carboxymethylhydrazinocarbonyl)oxirane-2-carboxylic Acid Phenethyl Ester], the “k2 caspase-1” value at caspase-1 came out at 56640 ± 9322 M⁻¹ s⁻¹. The “k2 caspase-3” value at caspase-3 worked out at 2110 ± 50 M⁻¹ s⁻¹. With `CC(C)[C@H](NC(=O)CCc1ccccc1)C(=O)N[C@@H](C)C(=O)NN(CC(=O)O)C(=O)[C@H]1O[C@@H]1C(=O)NCc1ccccc1` [23g (S,S), (2S,3S)-2-(2-Benzylcarbamoyl)-3-(N^2-(3-phenylpropanoylvalylalanyl)-N^1-carboxymethylhydrazinocarbonyl)oxirane], at caspase-1, the “k2 caspase-1” value is 65900 ± 9153 M⁻¹ s⁻¹. For the same compound, at caspase-3, the “k2 caspase-3” value is 1610 ± 5 M⁻¹ s⁻¹. On the same counts, the results for `CCOC(=O)[C@H]1O[C@@H]1C(=O)N(CC(=O)O)NC(=O)[C@@H](NC(=O)[C@H](CCC(=O)O)NC(=O)[C@@H](NC(=O)OCc1ccccc1)[C@@H](C)CC)[C@@H](C)O` [27c (S,S), (2S,3S)-3-(N^2-(N-Benzyloxycarbonylisoleucylglutamylthreonyl)-N^1-carboxymethylhydrazinocarbonyl)oxirane-2-carboxylic Acid Ethyl Ester] are 12372 M⁻¹ s⁻¹ and 4080 ± 360 M⁻¹ s⁻¹. Turning to `CC(C)[C@H](NC(=O)CCc1ccccc1)C(=O)N[C@@H](C)C(=O)NN(CC(=O)O)C(=O)[C@H]1O[C@@H]1C(=O)NC(Cc1ccc(O)cc1)C(N)=O` (stereo partly drawn) [23m, (2S,3S)-2-(2-Amido-phenyl(4-hydroxy)ethylcarbamoyl)-3-(N^2-(3-phenylpropanoylvalylalanyl)-N^1-carboxymethylhydrazinocarbonyl)oxirane], the “k2 caspase-1” value on caspase-1 stood at 3245 ± 2330 M⁻¹ s⁻¹. Besides, on caspase-3, the “k2 caspase-3” value turned out to be 87 ± 4 M⁻¹ s⁻¹.

Consider `CC[C@H](C)[C@H](NC(=O)OCc1ccccc1)C(=O)N[C@@H](CCC(=O)O)C(=O)N[C@H](C(=O)NN(CC(=O)O)C(=O)[C@@H]1O[C@H]1C(=O)NCc1ccccc1)[C@@H](C)O` [27g, (2R,3R)-2-(2-Benzylcarbamoyl)-3-(N^2-(N-benzyloxycarbonylisoleucylglutamylthreonyl)-N^1-carboxymethylhydrazinocarbonyl)oxirane], for which, at caspase-1, the “k2 caspase-1” value was 18140 ± 4085 M⁻¹ s⁻¹. The “k2 caspase-3” value on caspase-3 was determined as 6475 ± 240 M⁻¹ s⁻¹. Taken in the same sequence, the figures for `CCOC(=O)[C@H]1O[C@@H]1C(=O)N(CC(=O)O)NC(=O)[C@H](C)NC(=O)[C@@H](NC(=O)CCc1ccccc1)C(C)C` [23c (S,S), (2S,3S)-3-(N^2-(3-Phenylpropanoylvalylalanyl)-N^1-carboxymethylhydrazinocarbonyl)oxirane-2-carboxylic Acid Ethyl Ester] were 32200 ± 14560 M⁻¹ s⁻¹ and 1040 ± 80 M⁻¹ s⁻¹. On the same counts, the results for `CC(C)[C@H](NC(=O)CCc1ccccc1)C(=O)N[C@@H](C)C(=O)NN(CC(=O)O)C(=O)[C@H]1O[C@@H]1C(=O)NCC(O)c1ccccc1` (stereo partly drawn) [23i (S,S), (2S,3S)-2-(2-Hydroxy-2-phenylethylcarbamoyl)-3-(N^2-(3-phenylpropanoylvalylalanyl)-N^1-carboxymethylhydrazinocarbonyl)oxirane] are 12260 ± 19 M⁻¹ s⁻¹ and 510 ± 100 M⁻¹ s⁻¹. On the same counts, the results for `CCOC(=O)[C@H]1O[C@@H]1C(=O)N(CC(=O)O)NC(=O)[C@@H](NC(=O)[C@H](CCC(=O)O)NC(=O)[C@H](CC(=O)O)NC(=O)OCc1ccccc1)C(C)C` [25c (S,S), (2S,3S)-3-(N^2-(N-Benzyloxycarbonylaspartylglutamylvalyl)-N^1-carboxymethylhydrazinocarbonyl)oxirane-2-carboxylic Acid Ethyl Ester] are 11840 ± 1214 M⁻¹ s⁻¹ and 1074440 ± 154710 M⁻¹ s⁻¹. On to “(2R,3R)-2-(1-Amido-phenethylcarbamoyl)-3-(N^2-(N-benzyloxycarbonylaspartylglutamylvalyl)-N^1-carboxymethylhydrazinocarbonyl)oxirane [24l]”, for which, at caspase-1, the “k2 caspase-1” value was determined as 1040 ± 455 M⁻¹ s⁻¹. The “k2 caspase-3” value at caspase-3 worked out at 470 ± 77 M⁻¹ s⁻¹.
